Experimental data reported in patent publication US20250136606A1, “MODULATORS OF TRPML, THEIR COMPOSITIONS AND METHODS OF USE” (Caraway Therapeutics, Inc., priority 2021, published 2025).
Like-named read-outs stand apart in the source and are kept apart here.

Tests used:
TRPML3 = target: T1, TRPML3 (Homo sapiens, UniProt Q8TDD5); experiment: Fluorescent TRPML3 assay (performed as for TRPML1, substituting the TRPML3 subtype); assay type: cell-based
T1 construct: expressed in transfected cells
T1 sequence (Q8TDD5 1-553): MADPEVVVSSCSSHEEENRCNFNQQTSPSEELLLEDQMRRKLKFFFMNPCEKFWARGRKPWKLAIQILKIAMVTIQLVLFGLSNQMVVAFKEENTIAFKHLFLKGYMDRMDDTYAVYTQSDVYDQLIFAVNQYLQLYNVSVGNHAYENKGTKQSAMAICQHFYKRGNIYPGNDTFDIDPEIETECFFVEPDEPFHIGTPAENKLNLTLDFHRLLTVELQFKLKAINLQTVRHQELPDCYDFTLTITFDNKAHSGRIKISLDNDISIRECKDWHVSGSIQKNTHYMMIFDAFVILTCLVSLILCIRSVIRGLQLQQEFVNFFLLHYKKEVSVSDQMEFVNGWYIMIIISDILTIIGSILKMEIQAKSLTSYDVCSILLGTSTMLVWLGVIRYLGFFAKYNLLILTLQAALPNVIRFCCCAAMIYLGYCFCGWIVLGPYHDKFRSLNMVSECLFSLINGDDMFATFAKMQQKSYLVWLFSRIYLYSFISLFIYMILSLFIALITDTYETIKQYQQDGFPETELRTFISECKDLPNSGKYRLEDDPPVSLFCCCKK
Procedure: (§1) HEK-293 Trex cells were stably transfected with a construct consisting of the human coding sequence for TRPML1 cloned into the […] plasmid pCDNA5 T/O. Mutations were introduced into the TRPML1 sequence to facilitate expression on the cell surface (Silvia Vergarajauregui, Rosa Puertollano, Traffic. 2006 March; 7(3): 337-353). Briefly, the cells are cultured in 150 mm round tissue culture dishes containing 20 mL of media. The day before the assay the cells are rinsed with DPBS-Ca—Mg and then treated briefly with Trypsin-EDTA. The Trypsin-EDTA is diluted with growth media, and cells are counted. 38×10^6 cells are re-plated into 150 mm round tissue culture dishes in media containing 0.5 ug/mL doxycycline to induce expression of hTRPML1.
(§2) The day of the experiment cells are lifted from the plates as above and collected by centrifugation. The cells are then suspended in dye loading buffer consisting of Ringer's solution supplemented with 0.1% Pluronic Acid and 1 micromolar Fluo4-AM dye. Cells are loaded for ˜60 minutes in the dark with occasional mixing. The cells are collected by centrifugation, the loading media aspirated, and the cells resuspended in 25 mL Ringer's solution and incubated ˜60 minutes in the dark. The cells are again collected by centrifugation, rinsed in Ringer's Solution and resuspended to […] in modified Ringer's solution containing 10 mM calcium.
(§3) Compounds are dissolved to a concentration of 10 millimolar with DMSO. Compound plates are created by dispensing compounds into 384 well black wall clear bottom plates (Greiner 781091). Positive and negative controls are included on each plate. Typically, different amounts of each compound are tested ranging from 100 nanoMoles (20 micromolar final concentration) decreasing in half-log steps to 31 picoMoles (6 nanomolar final concentration). Each concentration is typically tested in triplicate.
(§4) 50 microliters of dye-loaded cells are dispensed into each well of the compound assay plate created above. The fluorescence in each well is then determined with an excitation wavelength of 480 nm and an emission wavelength of 540 nm using either a Molecular Devices SpectraMax multimode plate reader or a Hamamatsu FDSS/uCell plate imager.
(§5) The resulting fluorescence for each well is exported as an ascii file and loaded into our LIMS for analysis. The percent activity of each compound at each concentration is determined by comparison to the positive and negative control wells included in each plate.
TRPML2 and TRPML3 Assays Assays for TRPML2 and TRPML3 were performed as above for TRPML1, by substituting the appropriate TRPML2 or TRPML3 subtype for the TRPML1.
(§6) EC50 values were calculated using a non-linear regression of Prism. In the table, “A” indicates an EC50 of less than 100 nM, “B” indicates an EC50 range from 100 nM to 500 nM; “C” indicates an EC50 range from 500 nM to 2 μM; and “D” indicates an EC50 greater than 2 μM.

TRPML1 = TRPML1 (Homo sapiens, UniProt Q9GZU1); experiment: Fluorescent TRPML1 assay (Fluo4-AM calcium fluorescence in doxycycline-induced HEK-293 Trex cells); assay type: cell-based
Procedure: as §1, §2, §3, §4, §5, §6

Chain of TRPML1 (Q9GZU1 whole entry L15A/L16A/L577A/L578A, form open): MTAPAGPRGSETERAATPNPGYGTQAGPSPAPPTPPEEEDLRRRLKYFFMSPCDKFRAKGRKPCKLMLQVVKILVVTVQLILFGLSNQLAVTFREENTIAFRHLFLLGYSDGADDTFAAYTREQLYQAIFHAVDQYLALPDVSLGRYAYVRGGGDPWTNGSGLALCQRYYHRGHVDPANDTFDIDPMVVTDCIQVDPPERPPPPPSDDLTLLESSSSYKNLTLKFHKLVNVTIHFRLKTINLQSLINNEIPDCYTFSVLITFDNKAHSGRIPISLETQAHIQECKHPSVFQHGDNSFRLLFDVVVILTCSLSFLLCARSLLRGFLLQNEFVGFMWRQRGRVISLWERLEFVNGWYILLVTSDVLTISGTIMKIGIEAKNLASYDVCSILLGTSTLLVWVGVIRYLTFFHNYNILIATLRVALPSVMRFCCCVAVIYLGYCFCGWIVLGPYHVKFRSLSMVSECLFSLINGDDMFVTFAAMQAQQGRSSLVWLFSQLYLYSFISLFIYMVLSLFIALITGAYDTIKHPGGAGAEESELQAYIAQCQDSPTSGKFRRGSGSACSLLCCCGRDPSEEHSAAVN

Row | Compound | EC50 (TRPML3; fluorescent calcium assay) [nM] | EC50 (TRPML1; fluorescent calcium assay) [nM] | EC50 (TRPML3) [nM] | EC50 (TRPML1) [nM]
1 | CC(C)(C)OC(=O)N1CCN(c2ncnc3c2c(C2CC2)cn3-c2cc(F)cc(F)c2)C[C@@H]1C(F)F (single isomer, unassigned) [Compound 315] | 500 to 2000 | 500 to 2000 |  | 
2 | C[C@@H]1CN(c2ncnc3c2c(C(F)(F)F)cn3[C@H]2CCCC(F)(F)C2)[C@@H](C)CN1C(=O)OC(C)(C)C (single isomer, unassigned) [Compound 713] |  |  | 100 to 500 | 500 to 2000
3 | CCOC(=O)N1C[C@H](C)N(c2ncnc3c2c(-c2cnccn2)cn3-c2cccc(Cl)c2)C[C@H]1C [Compound 125, Ethyl (2R,5S)-4-(7-(3-chlorophenyl)-5-(pyrazin-2-yl)-7H-pyrrolo[2,3-d]pyrimidin-4-yl)-2,5-dimethylpiperazine-1-carboxylate] | 500 to 2000 | 500 to 2000 |  | 
4 | CCOC(=O)N1CCN(c2ncnc3c2c(-c2ccccc2F)cn3-c2cncc(OC)c2)[C@@H](C)C1 [Compound 126, ethyl (S)-4-(5-(2-fluorophenyl)-7-(5-methoxypyridin-3-yl)-7H-pyrrolo[2,3-d]pyrimidin-4-yl)-3-methylpiperazine-1-carboxylate] | 500 to 2000 | 500 to 2000 |  | 
5 | CCOC(=O)N1CCN(c2ncnc3c2c(C2CC2)cn3-c2cncc(C)c2)[C@@H](C)C1 [Compound 153, ethyl (S)-4-(5-cyclopropyl-7-(5-methylpyridin-3-yl)-7H-pyrrolo[2,3-d]pyrimidin-4-yl)-3-methylpiperazine-1-carboxylate] | > 2000 | > 2000 |  | 
6 | CCOC(=O)N1C[C@H](C)N(c2ncnc3c2c(C2CC2)cn3-c2cccc(Cl)c2)[C@@H](C)C1 [Compound 189, ethyl (3S,5S)-4-(7-(3-chlorophenyl)-5-cyclopropyl-7H-pyrrolo[2,3-d]pyrimidin-4-yl)-3,5-dimethylpiperazine-1-carboxylate] | 100 to 500 | 100 to 500 |  | 
7 | C[C@@H]1CN(C(=O)OC(C)(C)C)CCN1c1ncnc2c1c(N1CCOCC1)cn2-c1cc(F)cc(F)c1 [Compound 227, tert-Butyl (R)-4-(7-(3,5-difluorophenyl)-5-morpholino-7H-pyrrolo[2,3-d]pyrimidin-4-yl)-3-methylpiperazine-1-carboxylate] | 100 to 500 | 500 to 2000 |  | 
8 | C[C@@H]1CN(c2ncnc3c2c(N2CCC[C@H]2CO)cn3-c2cccc(Cl)c2)CCN1C(=O)OC(C)(C)C [Compound 283, tert-butyl (R)-4-(7-(3-chlorophenyl)-5-((S)-2-(hydroxymethyl)pyrrolidin-1-yl)-7H-pyrrolo[2,3-d]pyrimidin-4-yl)-2-methylpiperazine-1-carboxylate] | 100 to 500 | > 2000 |  | 
9 | C[C@H]1CCCN1c1cn(-c2cccc(Cl)c2)c2ncnc(N3CCN(C(=O)OC(C)(C)C)C[C@@H]3C)c12 [Compound 316, tert-butyl (S)-4-(7-(3-chlorophenyl)-5-((S)-2-methylpyrrolidin-1-yl)-7H-pyrrolo[2,3-d]pyrimidin-4-yl)-3-methylpiperazine-1-carboxylate] | < 100 | 500 to 2000 |  | 
10 | C[C@H]1CN(C(=O)OC(C)(C)C(F)(F)F)CCN1c1ncnc2c1c(N1CCCC1)cn2C1CCCCC1 [Compound 359, 1,1,1-trifluoro-2-methylpropan-2-yl (S)-4-(7-cyclohexyl-5-(pyrrolidin-1-yl)-7H-pyrrolo[2,3-d]pyrimidin-4-yl)-3-methylpiperazine-1-carboxylate] |  | 100 to 500 |  | 
11 | C[C@H]1CN(C(=O)OC(C)(C)C)CCN1c1ncnc2c1c(N1CCCC1)cn2C1CCOCC1 [Compound 360, tert-butyl (S)-3-methyl-4-(5-(pyrrolidin-1-yl)-7-(tetrahydro-2H-pyran-4-yl)-7H-pyrrolo[2,3-d]pyrimidin-4-yl)piperazine-1-carboxylate] |  | 500 to 2000 |  | 
12 | C[C@H]1CN(C(=O)OC(C)(C)C)CCN1c1ncnc2c1c(C1CC1)cn2[C@@H]1C[C@@H]2CC[C@H]1C2 [Compound 361, tert-butyl (S)-4-(7-((1S,2R,4R)-bicyclo[2.2.1]heptan-2-yl)-5-cyclopropyl-7H-pyrrolo[2,3-d]pyrimidin-4-yl)-3-methylpiperazine-1-carboxylate] |  | < 100 |  | 
13 | C[C@H]1CN(C(=O)OCC(F)(F)F)CCN1c1ncnc2c1c(-c1ccccn1)cn2-c1cc(C#N)ccn1 [Compound 372, 2,2,2-trifluoroethyl (S)-4-(7-(4-cyanopyridin-2-yl)-5-(pyridin-2-yl)-7H-pyrrolo[2,3-d]pyrimidin-4-yl)-3-methylpiperazine-1-carboxylate] | 100 to 500 | 100 to 500 |  | 
14 | N#Cc1ccnc(-n2cc(-c3ccccc3F)c3c(N4CCN(C(=O)OCC(F)(F)F)CC4)ncnc32)c1 [Compound 373, 2,2,2-trifluoroethyl 4-(7-(4-cyanopyridin-2-yl)-5-(2-fluorophenyl)-7H-pyrrolo[2,3-d]pyrimidin-4-yl)piperazine-1-carboxylate] | < 100 | 100 to 500 |  | 
15 | C[C@H]1CN(C(=O)OC(C)(C)C)CCN1c1ncnc2c1c(N1CCOCC1)cn2-c1cc(C#N)ccn1 [Compound 380, tert-butyl (S)-4-(7-(4-cyanopyridin-2-yl)-5-morpholino-7H-pyrrolo[2,3-d]pyrimidin-4-yl)-3-methylpiperazine-1-carboxylate] | 500 to 2000 | 100 to 500 |  | 
16 | C[C@H]1CN(C(=O)OC(C)(C)C)CCN1c1ncnc2c1c(C1CC1)cn2C1CCCC(F)(F)C1 (stereo partly drawn) [Compound 382, tert-butyl (3S)-4-(5-cyclopropyl-7-(3,3-difluorocyclohexyl)-7H-pyrrolo[2,3-d]pyrimidin-4-yl)-3-methylpiperazine-1-carboxylate] | 500 to 2000 | 500 to 2000 |  | 
17 | C[C@H]1CN(C(=O)OC(C)(C)C)CCN1c1ncnc2c1c(N1CCCC1)cn2C12CCC(CC1)CC2 [Compound 383, tert-butyl (S)-4-(7-(bicyclo[2.2.2]octan-1-yl)-5-(pyrrolidin-1-yl)-7H-pyrrolo[2,3-d]pyrimidin-4-yl)-3-methylpiperazine-1-carboxylate] | > 2000 | 100 to 500 |  | 
18 | CC(C)(OC(=O)N1CCN(c2ncnc3c2c(C2CC2)cn3-c2cc(C#N)ccn2)CC1)C(F)(F)F [Compound 385, 1,1,1-trifluoro-2-methylpropan-2-yl 4-(7-(4-cyanopyridin-2-yl)-5-cyclopropyl-7H-pyrrolo[2,3-d]pyrimidin-4-yl)piperazine-1-carboxylate] | 100 to 500 | 100 to 500 |  | 
19 | CC(C)OC(=O)N1CCN(c2ncnc3c2c(C2CC2)cn3-c2cc(C#N)ccn2)[C@@H](C)C1 [Compound 386, isopropyl (S)-4-(7-(4-cyanopyridin-2-yl)-5-cyclopropyl-7H-pyrrolo[2,3-d]pyrimidin-4-yl)-3-methylpiperazine-1-carboxylate] | 100 to 500 | < 100 |  | 
20 | CC(C)(C)OC(=O)N1CCN(c2ncnc3c2c(-c2ccccc2F)cn3-c2cc(C#N)ccn2)CC12CC2 [Compound 392, tert-butyl 7-(7-(4-cyanopyridin-2-yl)-5-(2-fluorophenyl)-7H-pyrrolo[2,3-d]pyrimidin-4-yl)-4,7-diazaspiro[2.5]octane-4-carboxylate] | < 100 | 100 to 500 |  | 
21 | C[C@@H]1CN(C(=O)OC(C)(C)C)CCN1c1ncnc2c1c(C1CC1)cn2-c1cc(C#N)ccn1 [Compound 393, tert-butyl (R)-4-(7-(4-cyanopyridin-2-yl)-5-cyclopropyl-7H-pyrrolo [2,3-d]pyrimidin-4-yl)-3-methylpiperazine-1-carboxylate] | < 100 | < 100 |  | 
